Experiment [1] has as its target T1, SMYD3 (Homo sapiens (Human), UniProt Q9H7B4). The experiment can be described thus: SMYD3 biochemical assay (SPA, 3H-SAM methylation of MEKK2 protein substrate). Conditions: read-out: SMYD3 Biochem IC50*. The essentials:
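Tritium incorporation into GST-MEKK2 is counted by scintillation proximity after citric acid bead capture. Native human SMYD3 is preincubated with test compound for 30 min at room temperature at pH 8.0 (Tris-Cl, TCEP, BSG, Tween 20) before 3H-SAM and substrate are added; cold SAM at 100 uM final stops turnover.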

Experiment [2] concerns the target T1, SMYD3. Nature of the experiment: SMYD3 cell assay (Trimethyl-MEKK2 In-Cell Western in 293T/17 cells). Conditions: read-out: SMYD3 Cell IC50*. It counts as cell-based. The gist of the method: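 In-Cell Western ratio of trimethyl-Lys260 MEKK2 to anti-flag signal; percent inhibition from DMSO and maximum-inhibition controls, IC50 by non-linear regression, triplicates.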

Among the data in US10577363B2, “Substituted piperidine compounds” (EPIZYME, INC., priority 2014, dated 2020) are IC50 values, retold here.

T1 sequence (Q9H7B4 whole entry): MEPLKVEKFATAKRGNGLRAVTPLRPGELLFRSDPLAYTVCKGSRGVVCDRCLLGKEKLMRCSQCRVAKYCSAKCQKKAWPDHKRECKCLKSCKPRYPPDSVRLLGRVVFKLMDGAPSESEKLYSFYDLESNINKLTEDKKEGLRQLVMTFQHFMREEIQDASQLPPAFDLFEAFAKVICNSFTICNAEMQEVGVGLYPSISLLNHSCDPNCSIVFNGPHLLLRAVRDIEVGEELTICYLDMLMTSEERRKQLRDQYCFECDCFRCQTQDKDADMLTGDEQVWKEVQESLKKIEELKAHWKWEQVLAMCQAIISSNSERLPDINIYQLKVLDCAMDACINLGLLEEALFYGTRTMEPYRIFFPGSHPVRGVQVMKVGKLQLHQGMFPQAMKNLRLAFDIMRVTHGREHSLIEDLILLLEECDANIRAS

Take `CC(C)c1cc(C(=O)N[C@H]2C[C@H]3CC[C@@H](C2)N3S(=O)(=O)[C@H]2CC[C@H](N)CC2)no1` [compound 871, N-((1R,3R,5S)-8-(((1r,4R)-4-aminocyclohexyl)sulfonyl)-8-azabicyclo[3.2.1]octan-3-yl)-5-isopropylisoxazole-3-carboxamide]: the IC50 on SMYD3 [1] stood at 9.38 nM; on SMYD3 [2] it was 86.7 nM.
Regarding `CCN(CC)C1CCN(S(=O)(=O)N2CC[C@H](NC(=O)c3cc(C4CC4)on3)C[C@@H]2C)CC1` [compound 872, 5-cyclopropyl-N-((2S,4S)-1-((4-(diethylamino)piperidin-1-yl)sulfonyl)-2-methylpiperidin-4-yl)isoxazole-3-carboxamide], the IC50 was found to be 9.46 nM at SMYD3 [1] and 183 nM on SMYD3 [2].
On to `C[C@H]1CN(S(=O)(=O)[C@H]2CC[C@@H](N)CC2)CC[C@H]1NC(=O)c1cc(C2CC2)on1` [compound 873, N-((3S,4R)-1-(((1s,4R)-4-aminocyclohexyl)sulfonyl)-3-methylpiperidin-4-yl)-5-cyclopropylisoxazole-3-carboxamide], for which the IC50 on SMYD3 [1] amounted to 9.62 nM; at SMYD3 [2] it was 169 nM.
Take `CN(CCCN1CCCC1)C1CCN(S(=O)(=O)N2[C@@H]3CC[C@H]2C[C@@H](NC(=O)c2cc(C4CC4)on2)C3)CC1` [compound 874, 5-cyclopropyl-N-((1R,3r,5S)-8-((4-(methyl(3-(pyrrolidin-1-yl)propyl)amino)piperidin-1-yl)sulfonyl)-8-azabicyclo[3.2.1]octan-3-yl)isoxazole-3-carboxamide]: the IC50 is 9.87 nM at SMYD3 [1] and 237 nM on SMYD3 [2].
For `C[C@H](C1CCN(C)CC1)S(=O)(=O)N1[C@@H]2CC[C@H]1C[C@@H](NC(=O)c1cc(C3CC3)on1)C2` [compound 876, 5-cyclopropyl-N-((1R,3R,5S)-8-(((R)-1-(1-methylpiperidin-4-yl)ethyl)sulfonyl)-8-azabicyclo[3.2.1]octan-3-yl)isoxazole-3-carboxamide], the IC50 was found to be 10 nM at SMYD3 [1] and 186 nM at SMYD3 [2].
On to `C[C@@H]1C[C@@H](NS(=O)(=O)N2[C@@H]3CC[C@H]2C[C@@H](NC(=O)c2cc(C4CC4)on2)C3)CCN1` [compound 877, 5-cyclopropyl-N-((1R,3S,5S)-8-(N-((2R,4S)-2-methylpiperidin-4-yl)sulfamoyl)-8-azabicyclo[3.2.1]octan-3-yl)isoxazole-3-carboxamide], for which the IC50 on SMYD3 [1] was 10 nM; on SMYD3 [2], 176 nM.
The like results for `O=C(N[C@H]1C[C@H]2CC[C@@H](C1)N2S(=O)(=O)[C@@H]1CCCCNC1)c1cc(C2CC2)on1` [compound 878, N-((1R,3R,5S)-8-(((R)-azepan-3-yl)sulfonyl)-8-azabicyclo[3.2.1]octan-3-yl)-5-cyclopropylisoxazole-3-carboxamide] were, in that order, 10.1 nM and 241 nM.
With `CC(C)c1cc(C(=O)N[C@H]2C[C@H]3CC[C@@H](C2)N3S(=O)(=O)CC2CCN(C)CC2)no1` [compound 879, 5-isopropyl-N-((1R,3r,5S)-8-(((1-methylpiperidin-4-yl)methyl)sulfonyl)-8-azabicyclo[3.2.1]octan-3-yl)isoxazole-3-carboxamide], the IC50 on SMYD3 [1] amounted to 10.7 nM; at SMYD3 [2], 206 nM.
For the compound `CN(Cc1ccccc1)C1CCN(S(=O)(=O)N2[C@@H]3CC[C@H]2C[C@@H](NC(=O)c2cc(C4CC4)on2)C3)CC1` [compound 880, N-((1R,3r,5S)-8-((4-(benzyl(methyl)amino)piperidin-1-yl)sulfonyl)-8-azabicyclo[3.2.1]octan-3-yl)-5-cyclopropylisoxazole-3-carboxamide], the IC50 at SMYD3 [1] is 10.8 nM; at SMYD3 [2], 455 nM.
`O=C(N[C@H]1C[C@H]2CC[C@@H](C1)N2S(=O)(=O)N1CC2CCC(C1)N2CCO)c1cc(C2CC2)on1` [compound 881, 5-cyclopropyl-N-((1R,3r,5S)-8-((8-(2-hydroxyethyl)-3,8-diazabicyclo[3.2.1]octan-3-yl)sulfonyl)-8-azabicyclo[3.2.1]octan-3-yl)isoxazole-3-carboxamide]: the IC50 was found to be 10.9 nM at SMYD3 [1] and 68.9 nM at SMYD3 [2].
For the compound `C[C@@H](C1CCNCC1)S(=O)(=O)N1[C@@H]2CC[C@H]1C[C@@H](NC(=O)c1cc(C3CC3)on1)C2` [compound 882, 5-cyclopropyl-N-((1R,3S,5S)-8-(((S)-1-(piperidin-4-yl)ethyl)sulfonyl)-8-azabicyclo[3.2.1]octan-3-yl)isoxazole-3-carboxamide], the IC50 turned out to be 11.2 nM at SMYD3 [1] and 85.6 nM on SMYD3 [2].
In the same order, the values of `O=C(N[C@H]1C[C@H]2CC[C@@H](C1)N2S(=O)(=O)[C@H]1CCCCNC1)c1cc(C2CC2)on1` [compound 883, N-((1R,3S,5S)-8-(((S)-azepan-3-yl)sulfonyl)-8-azabicyclo[3.2.1]octan-3-yl)-5-cyclopropylisoxazole-3-carboxamide] are 12 nM and 128 nM.
`O=C(N[C@H]1C[C@H]2CC[C@@H](C1)N2S(=O)(=O)NC1CCN[C@@H](Cc2ccccc2)C1)c1cc(C2CC2)on1` (stereo partly drawn) [compound 884, N-((1R,3S,5S)-8-(N-((2S)-2-benzylpiperidin-4-yl)sulfamoyl)-8-azabicyclo[3.2.1]octan-3-yl)-5-cyclopropylisoxazole-3-carboxamide]: the IC50 on SMYD3 [1] stood at 12.1 nM; at SMYD3 [2] it was 283 nM.
The like results for `CN[C@H]1CC[C@H](S(=O)(=O)N2CC[C@@H](NC(=O)c3cc(C4CC4)on3)[C@@H](C)C2)CC1` [compound 885, 5-cyclopropyl-N-((3S,4R)-3-methyl-1-(((1r,4S)-4-(methylamino)cyclohexyl)sulfonyl)piperidin-4-yl)isoxazole-3-carboxamide] were, in that order, 12.1 nM and 157 nM.
In the same order, the values of `C[C@H]1C[C@@H](NS(=O)(=O)N2[C@@H]3CC[C@H]2C[C@@H](NC(=O)c2cc(C4CC4)on2)C3)CCN1` [compound 886, 5-cyclopropyl-N-((1R,3S,5S)-8-(N-((2S,4S)-2-methylpiperidin-4-yl)sulfamoyl)-8-azabicyclo[3.2.1]octan-3-yl)isoxazole-3-carboxamide] are 12.1 nM and 205 nM.
`CC1CN(S(=O)(=O)N2[C@@H]3CC[C@H]2C[C@@H](NC(=O)c2cc(C4CC4)on2)C3)CCN1` (stereo partly drawn) [compound 887, 5-cyclopropyl-N-((1R,3r,5S)-8-((3-methylpiperazin-1-yl)sulfonyl)-8-azabicyclo[3.2.1]octan-3-yl)isoxazole-3-carboxamide]: the IC50 came out at 12.2 nM on SMYD3 [1] and 87.8 nM at SMYD3 [2].
Take `COCCCN1C2CCC1CN(S(=O)(=O)N1[C@@H]3CC[C@H]1C[C@@H](NC(=O)c1cc(C4CC4)on1)C3)C2` [compound 888, 5-cyclopropyl-N-((1R,3r,5S)-8-((8-(3-methoxypropyl)-3,8-diazabicyclo[3.2.1]octan-3-yl)sulfonyl)-8-azabicyclo[3.2.1]octan-3-yl)isoxazole-3-carboxamide]: the IC50 on SMYD3 [1] came out at 12.4 nM; on SMYD3 [2] it was 118 nM.
In the case of `CCN(CC)C1CCN(S(=O)(=O)N2[C@@H]3CC[C@H]2C[C@@H](NC(=O)c2cc(C4CC4)on2)C3)CC1` [compound 889, 5-cyclopropyl-N-((1R,3r,5S)-8-((4-(diethylamino)piperidin-1-yl)sulfonyl)-8-azabicyclo[3.2.1]octan-3-yl)isoxazole-3-carboxamide], the IC50 at SMYD3 [1] came to 12.7 nM; at SMYD3 [2], 216 nM.
For the compound `CC1CC(N)CCN1S(=O)(=O)N1CC[C@H](NC(=O)c2cc(C3CC3)on2)C[C@@H]1C` (stereo partly drawn) [compound 890, N-((2S,4S)-1-((4-amino-2-methylpiperidin-1-yl)sulfonyl)-2-methylpiperidin-4-yl)-5-cyclopropylisoxazole-3-carboxamide], the results for the IC50 on SMYD3 [1] and on SMYD3 [2] were 13.2 nM and 239 nM, respectively.
In the same order, the values of `NC1[C@@H]2CC[C@H]1CN(S(=O)(=O)N1[C@@H]3CC[C@H]1CC(NC(=O)c1cc(C4CC4)on1)C3)C2` (stereo partly drawn) [compound 891, N-((1R,3R,5S)-8-(((1R,5S)-8-amino-3-azabicyclo[3.2.1]octan-3-yl)sulfonyl)-8-azabicyclo[3.2.1]octan-3-yl)-5-cyclopropylisoxazole-3-carboxamide] are 13.3 nM and 145 nM.
As for `O=C(N[C@H]1C[C@H]2CC[C@@H](C1)N2S(=O)(=O)N1CCC(NCc2ccc(C(F)(F)F)cc2)CC1)c1cc(C2CC2)on1` [compound 892, 5-cyclopropyl-N-((1R,3r,5S)-8-((4-((4-(trifluoromethyl)benzyl)amino)piperidin-1-yl)sulfonyl)-8-azabicyclo[3.2.1]octan-3-yl)isoxazole-3-carboxamide], the IC50 at SMYD3 [1] came out at 13.5 nM; at SMYD3 [2], 268 nM.
On to `CN1CCC(NS(=O)(=O)N2[C@@H]3CC[C@H]2C[C@@H](NC(=O)c2cc(C4CC4)on2)C3)CC1` [compound 893, 5-cyclopropyl-N-((1R,3r,5S)-8-(N-(1-methylpiperidin-4-yl)sulfamoyl)-8-azabicyclo[3.2.1]octan-3-yl)isoxazole-3-carboxamide], for which the IC50 at SMYD3 [1] stood at 13.7 nM; at SMYD3 [2], 239 nM.
As for `CN1CCC([C@@H](Cc2ccccc2)S(=O)(=O)N2[C@@H]3CC[C@H]2C[C@@H](NC(=O)c2cc(C4CC4)on2)C3)CC1` [compound 894, 5-cyclopropyl-N-((1R,3R,5S)-8-(((R)-1-(1-methylpiperidin-4-yl)-2-phenylethyl)sulfonyl)-8-azabicyclo[3.2.1]octan-3-yl)isoxazole-3-carboxamide], the IC50 at SMYD3 [1] was determined as 13.9 nM; at SMYD3 [2], 280 nM.
Turning to `CN1CC2CCC1CN2S(=O)(=O)N1[C@@H]2CC[C@H]1C[C@@H](NC(=O)c1cc(C3CC3)on1)C2` [compound 895, 5-cyclopropyl-N-((1R,3r,5S)-8-((5-methyl-2,5-diazabicyclo[2.2.2]octan-2-yl)sulfonyl)-8-azabicyclo[3.2.1]octan-3-yl)isoxazole-3-carboxamide], the IC50 was determined as 13.9 nM at SMYD3 [1] and 186 nM on SMYD3 [2].
